Where two headings read alike, the source gives them in different places.
Tests used:
[1] = test system: HK-2 cells; experiment: cells; format: cell-based, human; settings: for Cell viability: HK-2, 1,000 μM, 24 or 48 h; for IC50: Homo sapiens
Protocol: Cytotoxicity analysis was determined using the Cell Counting kit 8 (CCK8) (Bioss, China). HK-2 was cultured in DMEM/F12 (containing 10% fetal bovine serum, 100 U/ml penicillin, and 100 μg/ml streptomycin; Gibco, Invitrogen) at 37°C in 5% carbon dioxide incubator. The cells were maintained at 80% confluency and the medium was replaced every 3 days for routine cultivation. HK-2 cells (8,000 cells/well) were seeded in 96-well plates overnight. The cells were then treated with analogues of AA for 24 or 48 h at different concentrations (6.8, 27.0, 54.0, 108.0, 216.0, and 432.0 μM for AA I; 12.5, 25.0, 100.0, 200.0, 400.0, and 800.0 μM for AA II; 15.6, 62.5, 125.0, 250.0, 500.0, and 1000.0 μM for AA IIIa; 15.6, 31.3, 62.5, 125.0, 500.0, and 1,000.0 μM for AA IVa; 8.0, 16.0, 32.0, 64.0, 128.0, and 256.0 μM for AL I). Subsequently, the cells were incubated with 10% CCK8 solution for another 2 h. […] The absorbance (OD) of each well was measured with a spectrophotometer (Spark; Tecan, Switzerland) at 450 nm and the IC50 values were obtained by fitting the curve through nonlinear regression with GraphPad Prism 7.0 (GraphPad Software, CA, United States).

[2] = test system: ICR mice; experiment: In vivo acute toxicity, single oral gavage dose, 14 days; settings: for Serum AST, ALT, ALP, TBIL, TBA, CREA, BUN vs control group: single oral dose, day 14, AA I at 20 and 40 mg/kg; for Histopathology of liver tissues: AA I 20 and 40 mg/kg
Protocol: The animal experiments were approved by the Research Ethics Committee of the Institute of Chinese Materia Medica, China Academy of Chinese Medical Sciences (ICMM, CACMS). The experiment was carried out according to ethical guidelines and regulations for the use of laboratory animals. A total of 160 ICR mice were randomly divided into 16 groups, each comprising 10 mice (5 males and 5 females). The drugs were administered in a single dose by oral gavage and the dose volume was 0.2 ml/10 g. The control group was treated with 0.5% CMC-Na. Other groups received AA I, AA II, AA IIIa, AA IVa, or AL I, at concentrations of 10, 20, and 40 mg/kg, respectively. Animal weights were recorded every two days. The animals were fasted overnight before experiments and sacrificed on day 14. Blood samples were collected and centrifuged for 15 min at 3,500×g. AST, ALT, ALP, CREA, BUN, TBA, and TBIL levels in plasma were examined. SPSS 17.0 (IBM Corp., United States) was used for the statistical and significance analyses. The renal and liver tissues were embedded and stained with H&E. Histological images were obtained through Olympus BX63 (Olympus Corporation, Japan) at a magnification of ×200.

[3] = test system: renal cells of ICR mice; experiment: Comet assay (DNA damage), renal cells; format: in vivo; settings: EMS 577.6 mg/kg; for Kidney Olive Tail Moment / Kidney Tail DNA%: AA analogues 20.0 mg/kg, three consecutive days, 5 animals/group, 100 cells; for DNA damage in renal cells (comet shape): AA analogues 20 mg/kg, three days
Protocol: (§1) ICR mice were separated into seven groups (n = 5 for each group) and administrated with saline, EMS (577.6 mg/kg), AA I (20 mg/kg), AA II (20 mg/kg), AA IIIa (20 mg/kg), AA IVa (20 mg/kg), or AL I (20 mg/kg) for three consecutive days, respectively. After anesthetization and perfusion, renal and liver tissues were obtained. Comet analysis was performed 2–6 h after the last […] and the processes were according to Günter Speit ([Speit and Rothfuss, 2012]). The Comet Assay software project (CASP) (V1.2.3) was used to analyze the fraction of tail DNA and the Olive Tail Moment. A total of one hundred cells from kidney or liver tissues of each animal were analyzed. The mean, standard deviation (SD) of tail DNA%, and the median of olive tail moment were calculated. Results were analyzed using SPSS 17.0 by one-way analysis of variance (ANOVA) followed by the least significance difference (LSD) test. The significant differences between the groups were tested and defined by p-value < 0.05.
(§2) Mice (n=35) were randomly divided into seven groups, with 5 mice in each group. Then they were administered with normal saline (NS), ethyl methanesulfonate (EMS) (577.6 mg/kg), and aristolochic acid analogues (20.0 mg/kg) for three days, respectively. After the final administration, mice were perfused and euthanized to obtain the renal and liver tissues.
(§3) The removed renal and liver tissues were minced into pieces and dispersed with 10 mL DMEM high-sugar culture medium. The mixture was filtered through a 200-mesh sieve and centrifuged at 800 rpm for 5 min. The supernatant was discarded and the cells were resuspended and centrifuged again. Then the cells were cultured in DMEM containing 10% FBS.
(§4) 25 μL single-cell suspension (5000 cells) with 75 μL of 0.7% low melting point agarose gel were mixed and 100 μL of the mixture was dropped on the bottom layer of agarose gel. The prepared glass slides were stored in the refrigerator at 4℃ for 4 min, and then dipped into the alkaline cell lysates for 2 h at 4℃. Slides were removed and rinsed with PBS buffer for 3 times.
(§5) The alkaline electrophoresis buffer (pH 13.0) precooled at 4℃ was put into the electrophoresis tank. The tank was covered to avoid light and remained static at 4℃ for 20 min. The voltage was set at 0.8 V/cm, and the current was 300 mA during the electrophoreses.
(§6) After 20 min, the slides were removed and the excess salt was washed away. The slides were washed by 0.4 mol/L precooled Tris-HCl buffer for 5 min and then dehydrated by ethanol for 15 min. Then the slides were stained with 30 μL PI staining solution (2 μg/mL) in the dark for 15 s, and washed in water several times.
(§7) A fluorescence microscope was used for visualization of DNA damage. A total of 100 randomly selected cells from kidney or liver tissues were analyzed. Parameters such as tail DNA percentage and Olive Tail Moment were calculated by the Comet Assay Software Project (CASP, V1.2.3).

[4] = test system: hepatocyte cells of ICR mice; experiment: Comet assay (DNA damage), hepatocyte cells; format: in vivo; settings: EMS 577.6 mg/kg; for Liver Olive Tail Moment / Liver Tail DNA%: AA analogues 20.0 mg/kg, three consecutive days, 5 animals/group, 100 cells; for DNA damage in hepatocyte cells (comet shape): AA analogues 20 mg/kg, three days
Protocol: as §1, §2, §3, §4, §5, §6, §7

[5] = 10, 20, 40 mg/kg single oral dose, 14 days
[6] = 10, 20, 40 mg/kg single oral dose, male and female mice
[7] = 10, 20 mg/kg single oral dose, 14 days

SMILES	Cell viability [1]	Nephrotoxicity or hepatotoxicity ([2]; 40 mg/kg)	Death [2, 5]	Body weight change vs control group [2, 6]	Serum AST, ALT, ALP, TBIL, TBA, CREA, BUN vs control group [2]	Kidney Olive Tail Moment [3] [μm]	Kidney Tail DNA% [3] [%]	DNA damage in renal cells (comet shape) [3]	Liver Olive Tail Moment [4] [μm]	Liver Tail DNA% [4] [%]	DNA damage in hepatocyte cells (comet shape) [4]	Death [2, 7]	Histopathology of liver tissues ([2]; H&E)	IC50 ([1]; HK-2, 24 h, read-out: IC50) [µM]	IC50 ([1]; HK-2, 48 h, read-out: IC50) [µM]	other results
O=C(O)c1cc2c(c3c1c([N+](=O)[O-])cc1ccc(O)cc13)OCO2 [AA IIIa, aristolochic acid IIIa]	≥ 50 % of control	No distinct nephrotoxicity or hepatotoxicity	no death	no distinct changes in body weight	no significant difference	0.61±0.16	2.60±0.69	No DNA damage	0.92±0.20	3.09±0.47	No DNA damage	–	–	–	–	–
COc1cccc2c1cc([N+](=O)[O-])c1c(C(=O)O)cc3c(c12)OCO3 [AA I, aristolochic acid I]	–	–	–	remarkable reduction of body weight	different levels of changes in serum levels of TBIL, ALP, BUN, and CREA	7.45 ± 1.94	15.39 ± 1.75	evident comet shape	0.88±0.14	2.92±0.54	no DNA damage	no death	no corresponding pathological changes	–	–	IC50 ([1]; HK-2, 24 h): 197 µM; IC50 ([1]; HK-2, 48 h): 76.7 µM; Survival rate ([2]; 40 mg/kg single oral dose, 14 days, n = 10, deaths on days 4, 5 and 6): 30%; Histopathology of renal tissues ([2]; 40 mg/kg, H&E): Significant lesions
COc1cc(O)cc2c1cc([N+](=O)[O-])c1c(C(=O)O)cc3c(c12)OCO3 [AA IVa, aristolochic acid IVa]	≥ 50 % of control	No distinct nephrotoxicity or hepatotoxicity	no death	no distinct changes in body weight	no significant difference	0.57±0.22	2.80±0.99	No DNA damage	0.81±0.14	2.98±0.22	No DNA damage	–	–	–	–	Body weight change ([2]; 40 mg/kg, female mice, day 5, returned on day 7): drastic weight loss
O=C(O)c1cc2c(c3c1c([N+](=O)[O-])cc1ccccc13)OCO2 [AA II, aristolochic acid II]	–	No distinct nephrotoxicity or hepatotoxicity	–	–	no significant difference	0.78±0.30	3.08±0.25	No DNA damage	0.89±0.22	3.37±0.42	No DNA damage	no death	–	> 800	306	Mice died ([2]; 40 mg/kg single oral dose, n = 10, death on day 8): 10%; Body weight change ([2]; 40 mg/kg, male and female mice, first 10 days): Slight weight loss
CCOS(C)(=O)=O [EMS, ethyl methanesulfonate, reference compound]	–	–	–	–	–	23.01±4.09	40.97±7.55	significant comet tailing	33.60±6.11	55.18±6.23	significant comet tailing	–	–	–	–	–
COc1cccc2c1cc1c3c(cc4c(c32)OCO4)C(=O)N1 [AL I, aristolactam I]	–	No distinct nephrotoxicity or hepatotoxicity	no death	no distinct changes in body weight	no significant difference	0.66±0.21	3.12±0.33	No DNA damage	0.74±0.29	3.26±0.52	No DNA damage	–	No pathological changes	> 256	37.1	Serum AST, ALT, ALP activity ([2]; 10 mg/kg): decreased AST, ALT, and ALP activity

Source: publication PMC8662950, “Quantitative Determination and Toxicity Evaluation of Aristolochic Acid Analogues in Asarum heterotropoides F. Schmidt (Xixin) and Traditional Chinese Patent Medicines” (Frontiers in Pharmacology, 2021)
